Results as given in PMC9828538, “Antigiardial Activity of Novel Guanidine Compounds” (Chemmedchem, 2022).
Entries after “also recorded” stand apart in the source; their conditions may differ. Read-outs that look alike come from different tables or passages of the source.

Columns and labels:
Giardia duodenalis = assay: Washout / growth recovery of Giardia after 5 h exposure; format: cell-based; conditions: 5 h treatment, 48 h post removal
In vivo toxicity in mice = conditions: per os, 100 mg/kg per day for 3 days, 100 mg/kg/day
[1] = tested on: Giardia duodenalis trophozoites (BAH2c2 strain); assay: Resazurin reduction assay on Giardia trophozoites in vitro; format: cell-based; conditions: for Selectivity ratio: higher ratios = more selective
Text: Biology Materials and Methods:
Metronidazole was sourced from sigma.
Chemicals used for the culture of Giardia in vitro were sourced as follows: glucose and L-cysteine (ACROS organics, Thermo Fisher Scientific, Scoresby, Vic), Ammonium Iron (III) citrate, ascorbic Acid (Sigma -aldrich, Castle Hill, NSW), potassium dihydrogen orthophosphate (UNIVAR, Ingleburn, NSW), bovine bi le (Fluka analytical (BD)), di-potassium hydrogen orthophosphate (Fronine laboratory supplies, Riverstone, NSW).
G. duodenalis (BAH2c2 strain) was cultivated according to the method of Clark and Diamond in Keister’s modified TYI-S-33 medium, supplemented with heat inactivated foetal bovine serum (Hyclone™, Thermo Scientific, Scoresby, Vic) at 37°C in plastic 9 mL screw-capped test tubes (nunc). Subcultures were performed once a confluent monolayer was observed, approximately 2 – 3 times per week (Clark and Diamond, 2002).
(§1) CaCo-2 cells, a human cell line derived from a primary colonic tumour, were sourced from Cellbank Australia and were maintained in MEM supplemented with 2 mM glutamine, 1% non-essential amino acids and 10% FCS (Thermo Scientific). Cells were passaged when confluent, approximately 1-2 times per week. Vero cells were also obtained from Cellbank Australia and maintained as above.
In vitro drug efficacy assays
Resazurin Reduction Assay […]
tested to identify the IC50 and minimum lethal concentration (MLC). For all assays the media of confluent cultures was replaced with fresh media and the cultures were placed on ice for 40 minutes to detach trophozoites.
Trophozoites were enumerated using a haemocytometer and 50 000 trophozoites were added to each test well of a 96 well plate. Either single concentrations (final concentration 25 μM) for the screening assay or tripling dilutions […]
wells. The assays were repeated in triplicate with metronidazole and a DMSO (vehicle only) used as controls. Plates were incubated under anaerobic conditions (anaerogen sachet, Thermofisher scientific) for 5 or 24 hours at 37°C following which the viability of treated cells was determined using the resazurin reduction assay (Benere et al., 2007). The media was removed and replaced with an equal volume of warm PBS. Resazurin (Sigma) was then added at 10% of the total volume of the wells. Plates were further incubated for colour development and absorbance read at 570 nm and 630 nm. Resazurin reduction was calculated according to the following formula: […]
(§2) CaCo-2 or Vero cells, maintained as outlined above, were collected via trypsinisation and enumerated using trypan blue and a haemocytometer. Select analogues were prepared in DMSO so that the final concentration in the assay was 25 μM. 1 X 10^5 cells/ml were added to each assay with the appropriate drug dilution. Assays were completed in 96 well plates and incubated for 24 hours at 37°C, 5% CO2 in a humidified incubator. After incubation cells were […]
(§3) washed with warm PBS before the addition of 10% resazurin in PBS. Assays were incubated to allow colour development and absorbance read at 630 and 570nm. Activity of the analogues against mammalian cells was calculated according to the formula stated above.

CaCo-2 cells = conditions: human, 24 h, 25 μM
Protocol: Biology Materials and Methods: […]
as §1
In vitro drug efficacy assays […]
2007). The media was removed and replaced with an equal volume of warm PBS. Resazurin (Sigma) was then added at 10% of the total volume of the wells. Plates were further incubated for colour development and absorbance read at 570 nm and 630 nm. Resazurin reduction was calculated according to the following formula: […]
as §2, §3

Structure (SMILES)	Giardia regrowth after compound removal (Giardia duodenalis)	Tolerability in mice (adverse effects) (In vivo toxicity in mice)	IC50 ([1]; Giardia duodenalis, 5 h, read-out: Antigiardial activity IC50 (5 h)) [nM]	time to marked impact on Giardia trophozoites ([1]; data not shown) [h]	Selectivity ratio ([1]; toxicity tested at 25 μM vs 5 h IC50, Table 4)	Toxicity (% growth control) (CaCo-2 cells) [%]	IC50 ([1]; Giardia duodenalis, 24 h, read-out: Antigiardial activity IC50 (24 h)) [nM]	MIC ([1]; Giardia duodenalis, 24 h, minimum inhibitory concentration, read-out: Antigiardial activity MIC (24 h)) [µM]	Selectivity ratio ([1]; toxicity tested at 25 μM vs 24 h IC50, Tables 1-3)
COc1cc(Br)c(C=NNC(=N)NN=Cc2cc(OC)c(OC)cc2Br)cc1OC.Cl [Compound 41, 2,2′‐bis[(2‐bromo‐4,5‐dimethoxyphenyl)methylene]carbonimidic dihydrazide hydrochloride]	no Giardia regrowth; also recorded: did not result in Giardia regrowth	well tolerated; also recorded: no adverse effects	200	1 to 2	>125	–	–	–	–
Cl.N=C(N/N=C/c1ccc(Cl)cc1)N/N=C/c1ccc(Cl)cc1 [Robenidine 4, robenidine, reference compound]	did not result in Giardia regrowth	–	–	–	–	40.7±22.6	900	2.8	>27.8
